Tested on: Staphylococcus aureus
Experiment: Zone of inhibition assay
Format: cell-based
Conditions: 37° C. for 72 hours
Procedure: Zone-of-inhibition and Drug Delivery Assay—Antimicrobial activity of ciprofloxacin- and tetracycline-loaded polyHIPEs was assessed through a zone of inhibition assay. […] The polyHIPE discs were incubated in the drug solutions at room temperature overnight. Prior to being frozen and lyophilized, the discs were briefly rinsed with methanol. A plate of Staphylococcus aureus was streaked using cells from frozen stocks; single colonies, selected from the plate, were then used to inoculate 10 mL of liquid LB media, which were cultured overnight at 37° C. The starter cultures were diluted with fresh LB to an OD600 of approximately 1.1 before being further diluted in 1:5 ratio of culture to fresh, liquid LB media. To inoculate LB agar plates, 250 μL of the diluted culture was spread evenly across the surface of the plates, which were then incubated for 30 minutes at 37° C. The LB plates were then removed from the incubator and divided into 4 quadrants with the drug-loaded or control polyHIPE discs placed in the center of each quadrant. The plates were then returned to the incubator and cultured for approximately 24 hours. Following the 24-hour period of incubation, the plates were removed, photographed next to a standard ruler and the polyHIPEs transferred to a freshly inoculated plate which was incubated for another 24 hours. […]

O=C(O)c1cn(C2CC2)c2cc(N3CCNCC3)c(F)cc2c1=O [ciprofloxacin]
antibiotic activity within polyHIPEs after incubation: not diminished

Reference: patent US11639412B2, “Acute care cover for severe injuries” (priority 2016, dated 2023)
